Test results: patent publication US20150065470A1, “Steroid Sulfatase Inhibitor Regimen for the Treatment of Endometriosis” (priority 2012, published 2015)
Blank lines part the entries; values can stand above or below the compound they belong to.

Columns and labels:
STS [1] = biological target: T1, STS (Homo sapiens, UniProt P08842); conditions: cited from earlier work
T1 sequence (P08842 22-583): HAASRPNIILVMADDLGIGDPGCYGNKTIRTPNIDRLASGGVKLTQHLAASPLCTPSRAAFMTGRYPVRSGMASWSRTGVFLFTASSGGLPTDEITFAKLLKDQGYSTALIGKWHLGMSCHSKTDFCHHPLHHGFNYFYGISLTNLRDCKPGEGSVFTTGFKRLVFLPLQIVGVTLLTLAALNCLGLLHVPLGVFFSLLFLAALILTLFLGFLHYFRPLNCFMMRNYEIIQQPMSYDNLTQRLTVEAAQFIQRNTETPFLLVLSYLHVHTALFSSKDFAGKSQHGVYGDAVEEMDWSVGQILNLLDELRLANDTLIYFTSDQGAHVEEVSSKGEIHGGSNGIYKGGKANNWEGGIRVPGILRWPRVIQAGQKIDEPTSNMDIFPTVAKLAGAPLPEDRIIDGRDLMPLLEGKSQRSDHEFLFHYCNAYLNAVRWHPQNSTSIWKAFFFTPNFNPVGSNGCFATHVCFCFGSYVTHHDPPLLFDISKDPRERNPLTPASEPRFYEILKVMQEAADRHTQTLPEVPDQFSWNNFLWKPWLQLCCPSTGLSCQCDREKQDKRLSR

STS [2] = biological target: T1, STS; conditions: cited from earlier work; remark: listed apart in the source
STS activity in PBMCs = biological target: T2, STS activity in PBMCs (Homo sapiens, UniProt P08842); assay: STS activity in PBMCs, Example 2 (LC-MS/MS); type: in vivo; conditions: E2MATE 4 mg weekly and/or NETA 10 mg daily for 4 weeks
T2 construct: Pharmacodynamic properties were investigated by assessment of the STS activity in PBMCs; endogenous in cells; host or cells: peripheral blood mononuclear cells (PBMCs) of dosed women
T2 sequence (P08842 22-583): T1 sequence (P08842 22-583)
Method: (§1) STS activity was determined by spiking specimens with labelled E1-S and by measuring its conversion to E1 per gram protein under standardized incubation conditions using LC-MS/MS. Protein concentration was evaluated with a validated colorimetric assay (Bradford method).

[3] = biological target: T3, Steroid Sulfatase in endometrium (Homo sapiens, UniProt P08842); assay: STS activity in endometrium, Example 2 (LC-MS/MS); type: in vivo; conditions: E2MATE 4 mg weekly and/or NETA 10 mg daily for 4 weeks
T3 construct: from tissue; host or cells: endometrium (biopsies) of dosed women
T3 sequence (P08842 22-583): T1 sequence (P08842 22-583)
Method: as §1

E2 and P4; T and D4A = assay: Hormone profiles (E2, P4, T, D4A), Example 2; type: in vivo, human
Method: Hormone profiles were determined as described in Example 1.

[4] = Safety, tolerability and post-treatment menstruation cycles, Example 2; conditions: follow-up, ultrasound
From the text: Menstruation cycle length was not influenced by the treatment. […] Sizes of right and left ovary differed slightly for each subject, but no clinically relevant changes were identified by the gynaecologists.

SMILES: NS(=O)(=O)Oc1ccc2c3c(c(=O)oc2c1)CCCCC3
blocking STS activity in both eutopic and ectopic tissues (STS [1]): effective in blocking STS activity

SMILES: C[C@]12CCC3c4ccc(OS(N)(=O)=O)cc4CCC3C1CCC2=O (stereo partly drawn) [EMATE, Estrone-3-o-sulfamate]
STS inhibition (STS [2]): active STS inhibitors

mean percentage inhibition of STS activity in PBMCs (STS activity in PBMCs; Day 4): 12%
average inhibition of STS activity in PBMCs (STS activity in PBMCs): 4%
AVG [%] average inhibition of Steroid Sulfatase in endometrium (average effect over time (AUC)) [3]: 14.9 (27.0) %
Emax [%] maximal inhibition of Steroid Sulfatase in endometrium [3]: 46.7 (42.8) %
SMILES: C#C[C@]1(OC(C)=O)CC[C@H]2[C@@H]3CCC4=CC(=O)CC[C@@H]4[C@H]3CC[C@@]21C [NETA, norethindrone (norethisterone) acetate, reference compound]
mean concentration-time profiles in E2 and P4 (E2 and P4; T and D4A; first cycle up to Day 29, normal increase on Day 43): suppressed
mean concentration-time profiles for T and D4A (E2 and P4; T and D4A; multiple dose administration): No relevant differences
ovarian size [4]: no apparent effect
